From patent EP4725507A1, “POLYPEPTIDE CONJUGATE, PHARMACEUTICAL COMPOSITION CONTAINING POLYPEPTIDE CONJUGATE AND USE THEREOF” (Nanjing Anji Biotechnology Co., Ltd., priority 2023, dated 2025)
Values after ≈ are worked out from the molar mass of the structure shown.

What was measured:
[1] = system: M14 (human malignant melanoma cells); experiment: Tumor cell proliferation inhibition (CCK8); type: cell-based; conditions: 72 h
Text: (§1) Human highly metastatic hepatocellular carcinoma cells HCCLM3, human highly metastatic gastric cancer cells MKN45, human gastric cancer cells BGC-823 and MGC-803, non-small cell lung cancer cells A549, human pancreatic cancer cells ASPC-1, human colon cancer cells LoVo, human ovarian cancer cells A2780, human cervical cancer cells SiHa, human malignant melanoma cells SK-mel-2 and M14, human osteosarcoma cells Saos-2, human bladder transitional cell carcinoma cells T24, human brain glioblastoma cells U87-MG, human lymphoma cells Raji, and human epidermal cancer cells A431 were selected for the experiment. Among them, HCCLM3 cells, MKN45 cells, BGC-823 cells, MGC-803 cells, A431 cells and A549 cells were provided by Nanjing Anji Biotechnology Co., Ltd., and the other cells were provided by Nanjing Ouji Pharmaceutical Technology Service Co., Ltd.
(§2) The aforementioned tumor cells were preserved in a medium containing 10% fetal bovine serum and 1% penicillin-streptomycin, and incubated at 37°C with 5% CO2 and 95% humidity. The aforementioned tumor cells were cultured in T75 flasks with an experimental cell density of 80%. The aforementioned tumor cell lines were mycoplasma-negative.
(§3) Tumor cells in the logarithmic growth phase were taken for the experiment. The cells were digested, counted, and prepared into a cell suspension with a concentration of 1×10^5 cells/mL, which was then inoculated into a 96-well plate (100 µL per well). The 96-well plate was incubated in a 37°C, 5% CO2 incubator for 24 hours. […] After incubating the plate in the incubator for 72 h, the cell morphology of each group was observed under a microscope. Then, 10 µL of CCK8 solution (Nanjing Enjing Biotechnology Co., Ltd.) was added to each well, and the plate was further incubated in the cell incubator for 4 h. After incubation, the absorbance was measured at 450 nm, and the tumor cell proliferation inhibition rate was calculated. The efficiency ratio was the ratio of the IC50 value of the free drug to that of the polypeptide conjugate. Table 1 Tumor cell proliferation inhibition rates of polypeptide conjugates

[2] = system: SK-mel-2 (human malignant melanoma cells); experiment: Tumor cell proliferation inhibition (CCK8); type: cell-based; conditions: 72 h
Text: as §1, §2, §3

[3] = system: U87-MG (human brain glioblastoma cells); experiment: Tumor cell proliferation inhibition (CCK8); type: cell-based; conditions: U-87 MG, 72 h
Text: as §1, §2, §3

[4] = system: LoVo (human colon cancer cells); experiment: Tumor cell proliferation inhibition (CCK8); type: cell-based; conditions: 72 h
Text: as §1, §2, §3

[5] = system: ASPC-1 (human pancreatic cancer cells); experiment: Tumor cell proliferation inhibition (CCK8); type: cell-based; conditions: ASPC1, 72 h
Text: as §1, §2, §3

[6] = system: A549 (non-small cell lung cancer cells); experiment: Tumor cell proliferation inhibition (CCK8); type: cell-based; conditions: Homo sapiens, 72 h
Text: as §1, §2, §3

[7] = system: HCCLM3 (human highly metastatic hepatocellular carcinoma cells); experiment: Tumor cell proliferation inhibition (CCK8); type: cell-based; conditions: 72 h
Text: as §1, §2, §3

[8] = system: SiHa (human cervical cancer cells); experiment: Tumor cell proliferation inhibition (CCK8); type: cell-based; conditions: 72 h
Text: as §1, §2, §3

[9] = system: gastric cancer MKN45 xenograft tumors; experiment: In vivo tumor-inhibitory activity of DOC-AI, MKN45 xenograft; parameters: species or system BALB/c nude mice; conditions: 6.20 µmol/Kg
Protocol: (§4) Non-small cell lung cancer A549 cells and human gastric cancer MKN-45 cells were preserved in F12-K medium containing 10% fetal bovine serum and 1% penicillin + streptomycin, and incubated at 37°C with 5% CO2 and 95% humidity. The aforementioned cells were cultured in T175 flasks with an experimental cell density of 80%. The aforementioned cell lines were mycoplasma-negative. Both A549 cells and MKN-45 cells were provided by Nanjing Anji Biotechnology Co., Ltd.
Gastric cancer MKN45 cells in the vigorous growth stage were taken and inoculated subcutaneously into the right axilla of BALB/c nude mice (Hangzhou Ziyuan Laboratory Animal Technology Co., Ltd.) under sterile conditions, with a cell inoculation amount of 1×10^7. The diameter of transplanted tumors in nude mice was measured with a vernier caliper. When the tumors grew to approximately 50 mm^3, 18 tumor-bearing nude mice with good growth status and relatively uniform tumor size were selected and divided into 3 groups, with 6 mice in each group. The administration frequency was once every 3 days, and this cycle was repeated until day 21. The anti-tumor effect in the nude mice was dynamically observed by measuring the tumor diameter. The tumor diameter was measured every other day, and the body weight of the nude mice was weighed simultaneously during the measurement of the tumor diameter. After 21 days of administration, the nude mice were euthanized, the tumor inhibition rate (%) was calculated, and the tumor masses were peeled off and weighed. Table 7 Results of Detection of In Vivo Tumor-Inhibitory Activity of DOC-AI

[10] = Solubility in water (HPLC, saturated solution); type: physicochemical; conditions: thermodynamic from solid, in water (ultrapure)
Protocol: 25, 50, 100, 200, 300, and 400 µL of the above stock solutions were precisely measured, added into 1 mL volumetric flasks, and diluted to the mark with methanol to obtain a series of standard solutions with concentrations of 25, 50, 100, 200, 300, and 400 µg/mL, respectively. The peak areas of the series of standard solutions were detected by HPLC (mobile phase: 0.065% TFA in water + 0.05% TFA; chromatographic column: YMC-Triart C18; wavelength: 220 nm) to construct a concentration-peak area standard curve, where the abscissa represents concentration and the ordinate represents peak area.
The peak area of the sample was detected by HPLC, and its saturation in water was calculated through the concentration-peak area standard curve. Table 6 Results of detection of solubility of polypeptide conjugates in water

[11] = system: non-small cell lung cancer A549 xenograft tumors; experiment: In vivo tumor-inhibitory activity of DOC-AI, A549 xenograft; parameters: species or system BALB/c nude mice; conditions: 6.20 µmol/Kg, 4 days on, 3 days off until day 21
Protocol: Non-small cell lung cancer A549 cells in the vigorous growth stage were taken and inoculated subcutaneously into the right axilla of BALB/c nude mice (Nanjing Zhonghua Biotechnology Co., Ltd.) under sterile conditions, with a cell inoculation amount of 1×10^7. The diameter of transplanted tumors in nude mice was measured with a vernier caliper. When the tumors grew to approximately 50 mm^3, 30 tumor-bearing nude mice with good growth status and relatively uniform tumor size were selected and divided into 5 groups, with 6 mice in each group. The administration frequency was continuous administration for 4 days followed by an interval of 3 days, and this cycle was repeated until day 21. […] The tumor diameter was measured every other day, and the body weight of the nude mice was weighed simultaneously during the measurement of the tumor diameter. After 21 days of administration, the nude mice were euthanized, the tumor inhibition rate (%) was calculated, and the tumor masses were peeled off and weighed.

[12] = system: MGC-803 (human gastric cancer cells); experiment: Tumor cell proliferation inhibition (CCK8); type: cell-based; conditions: IC50 of free drug / IC50 of polypeptide conjugate
Text: as §1, §2, §3

[13] = system: A431 (human epidermal cancer cells); experiment: Tumor cell proliferation inhibition (CCK8); type: cell-based; conditions: IC50 of free drug / IC50 of polypeptide conjugate
Text: as §1, §2, §3

[14] = system: BGC-823 (human gastric cancer cells); experiment: Tumor cell proliferation inhibition (CCK8); type: cell-based; conditions: IC50 of free drug / IC50 of polypeptide conjugate
Text: as §1, §2, §3

[15] = system: MKN45 (human highly metastatic gastric cancer cells); experiment: Tumor cell proliferation inhibition (CCK8); type: cell-based; conditions: IC50 of free drug / IC50 of polypeptide conjugate
Text: as §1, §2, §3

[16] = system: human gastric cancer cell MKN45 xenograft tumors; experiment: In vivo tumor-inhibitory activity of PTX-AI, MKN45 xenograft; parameters: species or system BALB/c nude mice; conditions: 5.28 µmol/Kg, once every 3 days, 21 days
Protocol: as §4
Human gastric cancer cells MKN-45 in the vigorous growth stage were taken and inoculated subcutaneously into the right axilla of BALB/c nude mice under sterile conditions, with a cell inoculation amount of 5×10^6. The diameter of transplanted tumors in nude mice was measured with a vernier caliper. When the tumors grew to approximately 50mm^3, […] tumor-bearing nude mice with good growth status and relatively uniform tumor size were selected, and divided into 6 groups, including 10 mice in the model group and 8 mice in each of the remaining groups. The anti-tumor effect of the test substance was dynamically observed by measuring the tumor diameter. The tumor diameter was measured every other day, and the body weight of the nude mice was weighed simultaneously during the measurement of the tumor diameter. After 21 days of administration, the nude mice were euthanized, the tumor inhibition rate (%) was calculated, and the tumor masses were peeled off and weighed. Table 3 Detection of In Vivo Tumor-Inhibitory Activity of PTX-AI

[17] = system: T24 (human bladder transitional cell carcinoma cells); experiment: Tumor cell proliferation inhibition (CCK8); type: cell-based; conditions: 72 h
Text: as §1, §2
as §3, with “h.” for “h. After incubation, the absorbance was measured at 450 nm, and the tumor cell proliferation inhibition rate was calculated. The efficiency ratio was the ratio of the IC50 value of the free drug to that of the polypeptide conjugate. Table 1 Tumor cell proliferation inhibition rates of polypeptide conjugates”

[18] = system: MGC-803 (human gastric cancer cells); experiment: Tumor cell proliferation inhibition (CCK8); type: cell-based; conditions: 72 h
Text: as §1, §2
as §3, with “h.” for “h. After incubation, the absorbance was measured at 450 nm, and the tumor cell proliferation inhibition rate was calculated. The efficiency ratio was the ratio of the IC50 value of the free drug to that of the polypeptide conjugate. Table 1 Tumor cell proliferation inhibition rates of polypeptide conjugates”

[19] = system: A431 (human epidermal cancer cells); experiment: Tumor cell proliferation inhibition (CCK8); type: cell-based; conditions: A-431, 72 h
Text: as §1, §2
as §3, with “h.” for “h. After incubation, the absorbance was measured at 450 nm, and the tumor cell proliferation inhibition rate was calculated. The efficiency ratio was the ratio of the IC50 value of the free drug to that of the polypeptide conjugate. Table 1 Tumor cell proliferation inhibition rates of polypeptide conjugates”

[20] = system: A2780 (human ovarian cancer cells); experiment: Tumor cell proliferation inhibition (CCK8); type: cell-based; conditions: 72 h
Text: as §1, §2
as §3, with “h.” for “h. After incubation, the absorbance was measured at 450 nm, and the tumor cell proliferation inhibition rate was calculated. The efficiency ratio was the ratio of the IC50 value of the free drug to that of the polypeptide conjugate. Table 1 Tumor cell proliferation inhibition rates of polypeptide conjugates”

[21] = system: BGC-823 (human gastric cancer cells); experiment: Tumor cell proliferation inhibition (CCK8); type: cell-based; conditions: 72 h
Text: as §1, §2
as §3, with “h.” for “h. After incubation, the absorbance was measured at 450 nm, and the tumor cell proliferation inhibition rate was calculated. The efficiency ratio was the ratio of the IC50 value of the free drug to that of the polypeptide conjugate. Table 1 Tumor cell proliferation inhibition rates of polypeptide conjugates”

[22] = system: Raji (human lymphoma cells); experiment: Tumor cell proliferation inhibition (CCK8); type: cell-based; conditions: 72 h
Text: as §1, §2
as §3, with “h.” for “h. After incubation, the absorbance was measured at 450 nm, and the tumor cell proliferation inhibition rate was calculated. The efficiency ratio was the ratio of the IC50 value of the free drug to that of the polypeptide conjugate. Table 1 Tumor cell proliferation inhibition rates of polypeptide conjugates”

[23] = system: MKN45 (human highly metastatic gastric cancer cells); experiment: Tumor cell proliferation inhibition (CCK8); type: cell-based; conditions: MKN-45, 72 h
Text: as §1, §2
as §3, with “h.” for “h. After incubation, the absorbance was measured at 450 nm, and the tumor cell proliferation inhibition rate was calculated. The efficiency ratio was the ratio of the IC50 value of the free drug to that of the polypeptide conjugate. Table 1 Tumor cell proliferation inhibition rates of polypeptide conjugates”

[24] = system: Saos-2 (human osteosarcoma cells); experiment: Tumor cell proliferation inhibition (CCK8); type: cell-based; conditions: 72 h
Text: as §1, §2
as §3, with “h.” for “h. After incubation, the absorbance was measured at 450 nm, and the tumor cell proliferation inhibition rate was calculated. The efficiency ratio was the ratio of the IC50 value of the free drug to that of the polypeptide conjugate. Table 1 Tumor cell proliferation inhibition rates of polypeptide conjugates”

[25] = MKN45 xenograft, once every 3 days until day 21

CC(=O)O[C@@]12CO[C@@H]1C[C@H](O)[C@@]1(C)C(=O)[C@H](O)C3=C(C)[C@@H](OC(=O)[C@H](O)[C@@H](NC(=O)OC(C)(C)C)c4ccccc4)C[C@@](O)([C@@H](OC(=O)c4ccccc4)[C@H]21)C3(C)C [DOC, docetaxel]
IC50 [1]: 3.68 nM | IC50 [2]: 0.214 nM | IC50 [3]: 5.4 nM | IC50 [4]: 992 nM | IC50 [5]: 4.35 nM | IC50 [6]: 33.5 nM | IC50 [7]: 431 nM | IC50 [8]: 0.235 nM | body weight changes ([9]; MKN45 xenograft nude mice, during the administration period): showed weight loss | Tumor Inhibition Rate [9, 25]: 73.76±13.15% | Tumor Weight [9, 25]: 579 ± 391 mg | Final Tumor Volume ([9]; MKN45 xenograft, once every 3 days until day 21, in mm³ (unit assumed)): 256.67±391.25 | solubility at 15 min [10]: 0.0274 µg/mL (≈ 0.0339 µM) | Tumor Inhibition Rate [11]: 59.55% | Tumor Weight [11]: 283.00 ± 179.83 mg

CC(=O)O[C@H]1C(=O)[C@@]2(C)[C@H]([C@H](OC(=O)c3ccccc3)[C@]3(O)C[C@H](OC(=O)[C@H](OC(=O)CCCC(=O)N[C@@H](CCCNC(=N)N)C(=O)N[C@@H](CO)C(=O)N4CCC[C@H]4C(=O)N[C@@H](Cc4ccc(O)cc4)C(=O)N[C@@H](C)C(=O)N[C@@H](CC(N)=O)C(=O)N[C@@H](CO)C(=O)O)[C@@H](NC(=O)c4ccccc4)c4ccccc4)C(C)=C1C3(C)C)[C@]1(OC(C)=O)CO[C@@H]1C[C@@H]2O [PTX-5-AI]
Efficiency Ratios [12]: 1.27 | Efficiency Ratios [13]: 2.13 | Efficiency Ratios [14]: 1.90 | Efficiency Ratios [15]: 1.65

CC(=O)O[C@H]1C(=O)[C@@]2(C)[C@H]([C@H](OC(=O)c3ccccc3)[C@]3(O)C[C@H](OC(=O)[C@H](O)[C@@H](NC(=O)c4ccccc4)c4ccccc4)C(C)=C1C3(C)C)[C@]1(OC(C)=O)CO[C@@H]1C[C@@H]2O [PTX, paclitaxel]
IC50 [7]: 9.4 nM | Tumor Inhibition Rate [16]: 47.6% | Tumor Weight [16]: 0.791 ± 0.151 g | Final Tumor Volume ([16]; in mm³ (unit assumed)): 782.0±105.9 | IC50 [17]: 38.6 nM | IC50 [18]: 23.6 nM | IC50 [19]: 0.17 nM | IC50 [20]: 0.19 nM | IC50 [21]: 8.11 nM | IC50 [22]: 43.9 nM | IC50 [23]: 3.21 nM | IC50 [24]: 0.77 nM | solubility at 15 min [10]: 0.12 µg/mL (≈ 0.141 µM)
